Measurements as given in patent US10925872B2, “Methods of treating cochlear synaptopathy” (PIPELINE THERAPEUTICS, INC., priority 2016, dated 2021).

What was measured:
[1] = tested on: Type I spiral ganglion neurons; experiment: Type I spiral ganglion neuron neurite outgrowth with GSMs; type: cell-based, CD-1 mice; conditions: for EC50: 24 h treatment, Type I SGNs; for neurite outgrowth (length of Type I SGN neurites): varying concentrations, 24 h
Experimental: Spiral ganglion neurons (SGNs) were cultured from postnatal day 5 CD-1 mice using methods adapted from Whitlon D S, et al., Scientific Reports, 2015, 5, 15960, doi:10.1038/srep15960. Neurons were dissociated and plated onto collagen-coated 96-well plates in growth media (DMEM/F12, N2 and B27 serum supplements and penicillin/streptomycin). After 18 h in culture, neurons were treated with varying concentrations of RO or NGP-555 for 24 h. Neurons were fixed and stained with a rabbit b-tubulin (somato-axonal marker) antibody followed by a donkey-anti-rabbit secondary antibody conjugated to Alexa 568 and counterstained with Hoechst blue fluorescent dye to stain the DNA. Neurons were imaged on an InCell 2000. Neurite length was measured using ImageJ. Only β-tubulin^+ cells displaying bipolar morphology (indicative of Type I SGNs) were quantified.
To determine whether the netrin-DCC pathway is involved in GSM-induced neurite outgrowth, a function-blocking netrin antibody was applied to the media 1 h prior to addition of 1 μM test compound. After 24 h, neurons are stained with β-tubulin and only neurites from Type I neurons are analyzed. Co-application of the netrin antibody with test compound results in a significant reduction in neurite outgrowth (FIG. 4D).

[2] = tested on: DCC α-fragment; experiment: DCC α-fragment Western blot, mouse ex vivo embryonic spinal cord; type: cell-based, CD-1 mice; conditions: embryonic day 15 spinal cord segments, 1 μM, 24 h, normalized to actin
Excerpt: (§1) Previous reports have shown that DCC (deleted in colorectal cancer) is a γ-secretase substrate. DCC is the receptor for the guidance molecule, netrin, and its activation results in neuronal axon outgrowth, axon turning and synapse formation. Embryonic spinal cords of presenilin knockout mice treated display persistent expression of the DCC α-fragment; these fragments can enhance netrin-DCC mediated events, including axon outgrowth in cultured motor neurons (Taniguchi et al., 2003, J. Biol. Chem., 278:30425-30428, and Bai et al., 2011, Cell, 144(1): 106-18). The following studies were performed using GSM, “RO”, as well as the GSI, Compound I. RO has the structure:
Spinal cords from embryonic day 15 CD-1 mice were collected and cut into 1-2 mm segments and transferred to serum-free growth media (DMEM-F12, N2 and B27 serum supplements, penicillin/streptomycin) with 1 μM RO or 1 μM Compound I. Segments were cultured for 24 h (37° C., 5% CO2) then processed for Western blot. Membranes were probed with a DCC antibody recognizing the intracellular domain and bands were normalized to actin.

[3] = tested on: DCC α-fragment; experiment: DCC α-fragment Western blot, mouse ex vivo cochlea (spiral ganglion); type: cell-based, CD-1 mice; conditions: postnatal day 21 cochlea, 1 μM, 24 h, normalized to actin
Excerpt: as §1
Cochleae were obtained from postnatal day 21 CD-1 mice. An opening was made in the bone at the cochlear apex to allow for fluid flow. Cochlea were incubated in serum-free growth media (DMEM-F12, N2 and B27 serum supplements, penicillin/streptomycin) with 1 μM RO or 1 μM Compound I. After 24 h, spiral ganglion were isolated and processed for Western blot. Membranes were probed with a DCC antibody recognizing the intracellular domain and bands were normalized to actin.

[4] = tested on: synapses on inner hair cells; experiment: Mouse noise-induced cochlear synaptopathy, oral GSM; type: in vivo, CBA/J mice; conditions: 98 dB 8-16 kHz noise 2 h; oral gavage from three weeks later; fourteen days later; 32 kHz region
Experimental: Female CBA/J mice were exposed to 98 dB 8-16 kHz filtered noise for 2 hours. Three weeks later, vehicle (0.5% Methylcellulose, b.i.d.), NGP-555 (50 mg/kg, b.i.d.) or RO (10 mg/kg, q.d.) was given by oral gavage. Fourteen days later, mice were euthanized, cochlea removed, then tissue was fixed by perfusion with 4% paraformaldehyde. Cochlea were washed with calcium/magnesium free PBS then decalcified in 12.5 mM EDTA for 3 days. Cochlea were bisected with a midmodiolar cut through the oval window to apex. Individual turns were then separated and stained with antibodies against Myo6 and CtBP2. Synapses per inner hair cell were quantified on the turn containing the 32 kHz region. Consistent with literature, a decrease in synaptic density (but no decrease in inner or outer hair cell number) was observed after the 98 dB insult.

[5] = tested on: Type I spiral ganglion neurons; experiment: Type I spiral ganglion neuron neurite outgrowth with GSIs; type: cell-based, CD-1 mice; conditions: 24-48 h, 0.1% DMSO
Experimental: Mouse spiral ganglion neurons (SGN) were harvested from CD-1 mice (postnatal day 3 to 5), dissociated and cultured on collagen I in serum free media. Cells were treated for 24-48 h with test compound in 0.1% DMSO then immunostained with the neurite marker, Tuj1 and imaged. Neurite length was quantified using ImageJ software (developed by NIH and available publicly). Only Tuj1^+ cells with clear bipolar morphology characteristic of Type I SGNs were quantified. The test compounds were Compound I, Compound II, and RO4929097, as well as the Notch sparing GSI, BMS-708163; NT-3 was included as positive control. […] Moreover, BMS-708163, a Notch-sparing GSI, and Compound I, a Notch inhibiting GSI, both increased type I SGN neurite outgrowth (FIG. 6C).

[6] = tested on: inner hair cell synapses; experiment: Guinea pig kanamycin-induced cochlear synaptopathy model; type: in vivo, Hartley guinea pigs; conditions: kanamycin 400 mg/kg i.p. 10 days; 30 μl of 2% in vehicle bilateral transtympanic on day 15; three months after
Experimental: Beginning on day 0, male Hartley guinea pigs (450-500 g) were deafened by intraperitoneal administration of kanamycin (400 mg/kg) dosed once daily for 10 consecutive days. […] A loss of synapse density in this model has not been described previously. On day 15, animals received bilateral transtympanic injections of vehicle (30 μl), crystalline Compound I (30 μl of 2% in vehicle), or crystalline Compound II (30 μl of 2% in vehicle). Three months after administration of test article, animals were euthanized and cochleae collected and stained with phalloidin and antibodies against CtBP2 and NF-200. The number of CtBP2+/NF-200+ synapses were quantified and normalized to the number of inner hair cells to obtain synapse density. Synapse density was decreased with kanamycin treatment at 14.7 and 17.3 mm from the apex of the cochlea, which in the guinea pig cochlea, tonally correlates with 16 and 32 kHz, respectively, according to the Greenwood frequency map.
Vehicle (PF10) and GSI in vehicle used in Examples 6 and 7 were prepared as follows: To 129 mL sterile water was added, 0.96 g sodium chloride, 0.59 g sodium phosphate dibasic, and 0.14 g sodium phosphate monobasic. The solution was stirred at ambient temperature and 25.6 g poloxamer 407 was added and stirred overnight to yield a clear solution. […]

[7] = tested on: inner hair cell synapses; conditions: noise-exposed mice, delivery to the round window niche; cited from earlier work

Cc1nsc(N2C[C@H]3CC[C@@H](C2)[C@@H]3Nc2nc3c(-c4ccc(F)c(F)c4F)cccn3n2)n1 [RO]
EC50 ([1]; Mus musculus, Neuron): 24 nM | neurite outgrowth (length of Type I SGN neurites) [1]: dose dependent increase | DCC α-fragment level compared to the vehicle group [2]: Increase in α-fragment | DCC α-fragment level compared to the vehicle group [3]: Increase in α-fragment | number of synapses on inner hair cells (synaptic density) [4]: increase in synaptic density

NC(=O)[C@@H](CCC(F)(F)F)N(Cc1ccc(-c2ncon2)cc1F)S(=O)(=O)c1ccc(Cl)cc1 [BMS-708163, reference compound]
lengths of Type I SGN neurites [5]: increased

CN1C(=O)[C@@H](NC(=O)[C@](C)(F)C(=O)NCC(F)(F)C(F)(F)F)c2ccccc2-c2ccccc21 [Compound II, (2R)-2-fluoro-2-methyl-N—[(S)-5-methyl-6-oxo-6,7-dihydro-5H-dibenzo[b,d]azepin-7-yl]-N′-(2,2,3,3,3-pentafluoropropyl)malonamide]
lengths of Type I SGN neurites [5]: significant increase | synapse density (CtBP2+/NF-200+ synapses per inner hair cell) [6]: increased

Cc1cn(-c2ccc3n(c2=O)CCN([C@@H](C)[C@@H]2CC[C@H](c4cc(F)c(Cl)cc4C(F)(F)F)O2)C3=O)cn1 [PF-06648671]
EC50 [1]: 0.303 nM | neurite outgrowth (length of Type I SGN neurites) [1]: dose-dependence increases

CCc1cc(Nc2nc(-c3ccc(-n4cnc(C)c4)c(F)c3)cs2)c(C)cc1C [NGP555]
EC50 ([1]; Mus musculus, Neuron): 0.527 nM | neurite outgrowth (length of Type I SGN neurites) [1]: dose dependent increase | number of synapses on inner hair cells (synaptic density) [4]: significantly increased

CC(C)(C(=O)NCC(F)(F)C(F)(F)F)C(=O)N[C@@H]1C(=O)Nc2ccccc2-c2ccccc21 [RO4929097, reference compound]
lengths of Type I SGN neurites [5]: significant increase

COc1ccc2c(c1)N1CCC(C)(C)C1=CC(=O)C2NC(=O)[C@H](C)NC(=O)CCC(F)(F)F (stereo partly drawn) [Compound X, 4,4,4-trifluoro-N-((2S)-1-((9-methoxy-3,3-dimethyl-5-oxo-2,3,5,6-tetrahydro-1H-benzo[f]pyrrolo[1,2-a]azepin-6-yl)amino)-1-oxopropan-2-yl)butanamide]
lengths of Type I SGN neurites [5]: dose-dependent increase

B1: NT-3: growth factor that binds to TrkC receptors; positive control (protein, UniProt P20783 139-257, looked up)
Neurotrophin-3: YAEHKSHRGEYSVCDSESLWVTDKSSAIDIRGHQVTVLGEIKTGNSPVKQYFYETRCKEARPVKNGCRGIDDKHWNSQCKTSQTYVRALTSENNKLVGWRWIRIDTSCVCALSRKIGRT
ABR wave 1 amplitude [7]: improvement | inner hair cell synapses [7]: recovered inner hair cell synapses
